Source: patent US20110166121A1 (LG LIFE SCIENCES LTD., priority 2008, published 2011)

Test system: Human platelet aggregation caused by ADP
Experiment: Inhibition of ADP-induced platelet aggregation (Mimic-human PRP)
Type: cell-based
Details: 20 μM ADP, human platelet concentrate diluted with PPP, absorption at 595 nm
Method in brief: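 Ki came from non-linear sigmoidal fits of inhibition, measured as the 3-min rise in absorbance at 595 nm after 20 μM ADP, relative to 0/20 μM ADP controls. Platelets (3–4×10^8/mL in PPP-diluted human PRP) were exposed to 0.01–30 μM compound for 20 min at room temperature beforehand.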

CCCC(=O)N1CC[C@@H](CNc2nc(N3CCn4c(nnc4C(F)(F)F)C3)c3cc(CCC)sc3n2)C1 [Example 8-20, 1-((S)-3-{[6-Propyl-4-(3-trifluoromethyl-5,6-dihydro-8H-[1,2,4]triazolo[4,3-a]pyrazin-7-yl)-thieno[2,3-d]pyrimidin-2-ylamino]-methyl}-pyrrolidin-1-yl)-butan-1-one]
Ki: 410 nM

CCCc1cc2c(N3CCn4c(nnc4C(F)(F)F)C3)nc(NC[C@@H]3CCN(C(=O)C(C)C)C3)nc2s1 [Example 8-21, 2-Methyl-1-((S)-3-{[6-propyl-4-(3-trifluoromethyl-5,6-dihydro-8H-[1,2,4]triazolo[4,3-a]pyrazin-7-yl)-thieno[2,3-d]pyrimidin-2-ylamino]-methyl}-pyrrolidin-1-yl)-propan-1-one]
Ki: 270 nM

CCCc1cc2c(N3CCn4c(nnc4C(F)(F)F)C3)nc(NC[C@H]3CCN(C(C)=O)C3)nc2s1 [Example 8-22, 1-((R)-3-{[6-Propyl-4-(3-trifluoromethyl-5,6-dihydro-8H-[1,2,4]triazolo[4,3-a]pyrazin-7-yl)-thieno[2,3-d]pyrimidin-2-ylamino]-methyl}-pyrrolidin-1-yl)-ethanone]
Ki: 220 nM

CCCC(=O)N1CC[C@H](CNc2nc(N3CCn4c(nnc4C(F)(F)F)C3)c3cc(CCC)sc3n2)C1 [Example 8-23, 1-((R)-3-{[6-Propyl-4-(3-trifluoromethyl-5,6-dihydro-8H-[1,2,4]triazolo[4,3-a]pyrazin-7-yl)-thieno[2,3-d]pyrimidin-2-ylamino]-methyl}-pyrrolidin-1-yl)-butan-1-one]
Ki: 570 nM

CCCc1cc2c(N3CCn4c(nnc4C(F)(F)F)C3)nc(NC[C@H]3CCN(C(=O)C(C)C)C3)nc2s1 [Example 8-24, 2-Methyl-1-((R)-3-{[6-propyl-4-(3-trifluoromethyl-5,6-dihydro-8H-[1,2,4]triazolo[4,3-a]pyrazin-7-yl)-thieno[2,3-d]pyrimidin-2-ylamino]-methyl}-pyrrolidin-1-yl)-propan-1-one]
Ki: 1400 nM

CCCc1cc2c(N3CCn4c(nnc4C(F)(F)F)C3)nc(OC3CN(C(=O)C(C)C)C3)nc2s1 [Example 8-27, 2-Methyl-1-{3-[6-propyl-4-(3-trifluoromethyl-5,6-dihydro-8H-[1,2,4]triazolo[4,3-a]pyrazin-7-yl)-thieno[2,3-d]pyrimidin-2-yloxy]-azetidin-1-yl}-propan-1-one]
Ki: 260 nM

CCCc1cc2c(N3CCn4c(nnc4C(F)(F)F)C3)nc(OC[C@H]3CCCN3C(C)=O)nc2s1 [Example 8-28, -{(R)-2-[6-Propyl-4-(3-trifluoromethyl-5,6-dihydro-8H-[1,2,4]triazolo[4,3-a]pyrazin-7-yl)-thieno[2,3-d]pyrimidin-2-yloxymethyl]-pyrrolidin-1-yl}-ethanone]
Ki: 45 nM

CCCC(=O)N1CCC[C@@H]1COc1nc(N2CCn3c(nnc3C(F)(F)F)C2)c2cc(CCC)sc2n1 [Example 8-29, 1-{(R)-2-[6-Propyl-4-(3-trifluoromethyl-5,6-dihydro-8H-[1,2,4]triazolo[4,3-a]pyrazin-7-yl)-thieno[2,3-d]pyrimidin-2-yloxymethyl]-pyrrolidin-1-yl}-butan-1-one]
Ki: 170 nM

CCCc1cc2c(N3CCn4c(nnc4C(F)(F)F)C3)nc(OC[C@H]3CCCN3C(=O)C(C)C)nc2s1 [Example 8-30, 2-Methyl-1-{(R)-2-[6-propyl-4-(3-trifluoromethyl-5,6-dihydro-8H-[1,2,4]triazolo[4,3-a]pyrazin-7-yl)-thieno[2,3-d]pyrimidin-2-yloxymethyl]-pyrrolidin-1-yl}-propan-1-one]
Ki: 140 nM

CCCc1cc2c(N3CCn4c(nnc4C(F)(F)F)C3)nc(OC[C@@H]3CCCN3C(C)=O)nc2s1 [Example 8-31, 1-{(S)-2-[6-Propyl-4-(3-trifluoromethyl-5,6-dihydro-8H-[1,2,4]triazolo[4,3-a]pyrazin-7-yl)-thieno[2,3-d]pyrimidin-2-yloxymethyl]-pyrrolidin-1-yl}-ethanone]
Ki: 19 nM

CCCC(=O)N1CCC[C@H]1COc1nc(N2CCn3c(nnc3C(F)(F)F)C2)c2cc(CCC)sc2n1 [Example 8-32, 1-{(S)-2-[6-Propyl-4-(3-trifluoromethyl-5,6-dihydro-8H-[1,2,4]triazolo[4,3-a]pyrazin-7-yl)-thieno[2,3-d]pyrimidin-2-yloxymethyl]-pyrrolidin-1-yl}-butan-1-one]
Ki: 62 nM

CCCc1cc2c(N3CCn4c(nnc4C(F)(F)F)C3)nc(OC[C@@H]3CCCN3C(=O)C(C)C)nc2s1 [Example 8-33, 2-Methyl-1-{(S)-2-[6-propyl-4-(3-trifluoromethyl-5,6-dihydro-8H-[1,2,4]triazolo[4,3-a]pyrazin-7-yl)-thieno[2,3-d]pyrimidin-2-yloxymethyl]-pyrrolidin-1-yl}-propan-1-one]
Ki: 43 nM

CCCc1cc2c(N3CCn4c(nnc4C(F)(F)F)C3)nc(OC[C@@H]3CCN(C(C)=O)C3)nc2s1 [Example 8-34, 1-{(R)-3-[6-Propyl-4-(3-trifluoromethyl-5,6-dihydro-8H-[1,2,4]triazolo[4,3-a]pyrazin-7-yl)-thieno[2,3-d]pyrimidin-2-yloxymethyl]-pyrrolidin-1-yl}-ethanone]
Ki: 45 nM

CCCC(=O)N1CC[C@@H](COc2nc(N3CCn4c(nnc4C(F)(F)F)C3)c3cc(CCC)sc3n2)C1 [Example 8-35, 1-{(R)-3-[6-Propyl-4-(3-trifluoromethyl-5,6-dihydro-8H-[1,2,4]triazolo[4,3-a]pyrazin-7-yl)-thieno[2,3-d]pyrimidin-2-yloxymethyl]-pyrrolidin-1-yl}-butan-1-one]
Ki: 49 nM

CCCc1cc2c(N3CCn4c(nnc4C(F)(F)F)C3)nc(OC[C@@H]3CCN(C(=O)C(C)C)C3)nc2s1 [Example 8-36, 2-Methyl-1-{(R)-3-[6-propyl-4-(3-trifluoromethyl-5,6-dihydro-8H-[1,2,4]triazolo[4,3-a]pyrazin-7-yl)-thieno[2,3-d]pyrimidin-2-yloxymethyl]-pyrrolidin-1-yl}-propan-1-one]
Ki: 45 nM

CCCc1cc2c(N3CCn4c(nnc4C(F)(F)F)C3)nc(OC[C@H]3CCN(C(C)=O)C3)nc2s1 [Example 8-37, 1-{(S)-3-[6-Propyl-4-(3-trifluoromethyl-5,6-dihydro-8H-[1,2,4]triazolo[4,3-a]pyrazin-7-yl)-thieno[2,3-d]pyrimidin-2-yloxymethyl]-pyrrolidin-1-yl}-ethanone]
Ki: 43 nM

CCCC(=O)N1CC[C@H](COc2nc(N3CCn4c(nnc4C(F)(F)F)C3)c3cc(CCC)sc3n2)C1 [Example 8-38, 1-{(S)-3-[6-Propyl-4-(3-trifluoromethyl-5,6-dihydro-8H-[1,2,4]triazolo[4,3-a]pyrazin-7-yl)-thieno[2,3-d]pyrimidin-2-yloxymethyl]-pyrrolidin-1-yl}-butan-1-one]
Ki: 110 nM

CCCc1cc2c(N3CCn4c(nnc4C(F)(F)F)C3)nc(OC[C@H]3CCN(C(=O)C(C)C)C3)nc2s1 [Example 8-39, 2-Methyl-1-{(S)-3-[6-propyl-4-(3-trifluoromethyl-5,6-dihydro-8H-[1,2,4]triazolo[4,3-a]pyrazin-7-yl)-thieno[2,3-d]pyrimidin-2-yloxymethyl]-pyrrolidin-1-yl}-propan-1-one]
Ki: 76 nM

CCCc1cc2c(N3CCn4c(nnc4C(F)(F)F)C3)nc(N3CC(O)C(NC(=O)OCC)C3)nc2s1 (stereo not shown) [Example 9-1, {4-Hydroxy-1-[6-propyl-4-(3-trifluoromethyl-5,6-dihydro-8H-[1,2,4]triazolo[4,3-a]pyrazin-7-yl)-thieno[2,3-d]pyrimidin-2-yl]-pyrrolidin-3-yl}-carbamic acid ethyl ester]
Ki: 18 nM

CCCc1cc2c(N3CCn4c(nnc4C(F)(F)F)C3)nc(N3CC(O)C(NC(=O)OC)C3)nc2s1 (stereo not shown) [Example 9-2, {4-Hydroxy-1-[6-propyl-4-(3-trifluoromethyl-5,6-dihydro-8H-[1,2,4]triazolo[4,3-a]pyrazin-7-yl)-thieno[2,3-d]pyrimidin-2-yl]-pyrrolidin-3-yl}-carbamic acid methyl ester]
Ki: 8 nM

CCCc1cc2c(N3CCn4c(nnc4C(F)(F)F)C3)nc(N3CC[C@H](NC(=O)Oc4ccc(F)cc4)C3)nc2s1 [Example 9-4, {(S)-1-[6-Propyl-4-(3-trifluoromethyl-5,6-dihydro-8H-[1,2,4]triazolo[4,3-a]pyrazin-7-yl)-thieno[2,3-d]pyrimidin-2-yl]-pyrrolidin-3-yl}-carbamic acid 4-fluoro-phenyl ester]
Ki: 280 nM

CCCc1cc2c(N3CCn4c(nnc4C(F)(F)F)C3)nc(N3CC[C@H](NC(=O)C4CCCC4)C3)nc2s1 [Example 9-5, Cyclopentanecarboxylic Acid {(S)-1-[6-propyl-4-(3-trifluoromethyl-5,6-dihydro-8H-[1,2,4]triazolo[4,3-a]pyrazin-7-yl)-thieno[2,3-d]pyrimidin-2-yl]-pyrrolidin-3-yl}-amide]
Ki: 130 nM

CCCc1cc2c(N3CCn4c(nnc4C(F)(F)F)C3)nc(N3CC[C@H](NC(=O)C4CCCCC4)C3)nc2s1 [Example 9-9, Cyclohexanecarboxylic Acid {(S)-1-[6-propyl-4-(3-trifluoromethyl-5,6-dihydro-8H-[1,2,4]triazolo[4,3-a]pyrazin-7-yl)-thieno[2,3-d]pyrimidin-2-yl]-pyrrolidin-3-yl}-amide]
Ki: 300 nM

CCCc1cc2c(N3CCn4c(nnc4C(F)(F)F)C3)nc(N3CC[C@H](NC(=O)c4ccc(Cl)s4)C3)nc2s1 [Example 9-11, 5-Chloro-thiophene-2-carboxylic Acid {(S)-1-[6-propyl-4-(3-trifluoromethyl-5,6-dihydro-8H-[1,2,4]triazolo[4,3-a]pyrazin-7-yl)-thieno[2,3-d]pyrimidin-2-yl]-pyrrolidin-3-yl}-amide]
Ki: 48 nM

CCCc1cc2c(N3CCn4c(nnc4C(F)(F)F)C3)nc(N3CC[C@H](NC(=O)c4cc(F)c(F)c(F)c4)C3)nc2s1 [Example 9-13, 3,4,5-Trifluoro-N-{(S)-1-[6-propyl-4-(3-trifluoromethyl-5,6-dihydro-8H-[1,2,4]triazolo[4,3-a]pyrazin-7-yl)-thieno[2,3-d]pyrimidin-2-yl]-pyrrolidin-3-yl}-benzamide]
Ki: 300 nM
